Assay results taken from US20240150377A1, “MODULATORS OF CYSTIC FIBROSIS TRANSMEMBRANE CONDUCTANCE REGULATOR” (VERTEX PHARMACEUTICALS INCORPORATED, priority 2020, published 2024).
Where two headings read alike, the source gives them in different places. Values belong to the molecule of their own block, whether it stands above or below them.

Molecular target: T1, CFTR (Homo sapiens, UniProt P13569, DEL508-508)
T1 construct: endogenous in cells; host or cells: primary human bronchial epithelial cells from CF subjects (F508del/MF-HBE), differentiated at air-liquid interface
Test: HBE assay: Ussing chamber assay of CFTR-mediated short-circuit currents
Format: cell-based
Conditions: for EC50: read-out: HBE EC50
Experimental: 1. Ussing Chamber Assay of CFTR-Mediated Short-Circuit Currents
(§1) Ussing chamber experiments were performed using human bronchial epithelial (HBE) cells derived from CF subjects heterozygous for F508del and a minimal function CFTR mutation (F508del/MF-HBE) and cultured as previously described (Neuberger T, Burton B, Clark H, Van Goor F Methods Mol Biol 2011:741:39-54). After four days the apical media was removed, and the cells were grown at an air liquid interface for >14 days prior to use.
(§2) To isolate the CFTR-mediated short-circuit (ISC) current, F508del/MF-HBE grown on Costar® Snapwell™ cell culture inserts were mounted in an Ussing chamber and the transepithelial ISC was measured under voltage-clamp recording conditions (Vhold=0 mV) at 37° C. The basolateral solution contained (in mM) 145 NaCl, 0.83 K2HPO4, 3.3 KH2PO4, 1.2 MgCl2, 1.2 CaCl2), 10 Glucose, 10 HEPES (pH adjusted to 7.4 with NaOH) and the apical solution contained (in mM) 145 NaGluconate, 1.2 MgCl2, 1.2 CaCl2), 10 glucose, 10 HEPES (pH adjusted to 7.4 with NaOH) and 30 μM amiloride to block the epithelial sodium channel. Forskolin (20 μM) was added to the apical surface to activate CFTR, followed by apical addition of a CFTR inhibitor cocktail consisting of BPO, GlyH-101, and CFTR inhibitor 172 (each at 20 μM final assay concentration) to specifically isolate CFTR currents. The CFTR-mediated ISC (μA/cm^2) for each condition was determined from the peak forskolin response to the steady-state current following inhibition.
2. Identification of Corrector Compounds
The activity of the CFTR corrector compounds on the CFTR-mediated ISC was determined in Ussing chamber studies as described above. The F508del/MF-HBE cell cultures were either incubated with the corrector compounds at a range of concentrations in combination with 1 μM Ivacaftor or were incubated with the corrector compounds at a single fixed concentration of 10 μM in combination with 1 μM Ivacaftor for 18-24 hours at 37° C. and in the presence of 20% human serum. The concentration of corrector compounds with 1 μM Ivacaftor during the 18-24 hours incubations was kept constant throughout the Ussing chamber measurement of the CFTR-mediated ISC to ensure compounds were present throughout the entire experiment.
Ussing Chamber Assay of CFTR-mediated short-circuit currents
as §1, with “(HIBE)” for “(HBE)”, “(F508del/MIF-HIBE)” for “(F508del/MF-HBE)”
as §2, with “KH2PO4,” for “K2HPO4,”
Identification of Corrector Compounds

[1] = HBE assay, 10 μM, read-out: HBE Activity at 10 μM (%)
[2] = HBE assay, read-out: HBE Max activity (%)
[3] = Table 11, at 10 μM, read-out: HBE Activity at 10 μM (%)
[4] = Table 11, read-out: HBE Max Activity (%)
[5] = Table 10, read-out: HBE Max activity (%)
[6] = Table 12, read-out: HBE Max Activity (%)
[7] = Table 13, read-out: HBE Max Activity (%)
[8] = Table 13, at 10 μM, read-out: HBE Activity at 10 μM (%)
[9] = Table 12, at 10 μM, read-out: HBE Activity at 10 μM (%)

T1 sequence (P13569 with tags, fused parts or gaps DEL508-508): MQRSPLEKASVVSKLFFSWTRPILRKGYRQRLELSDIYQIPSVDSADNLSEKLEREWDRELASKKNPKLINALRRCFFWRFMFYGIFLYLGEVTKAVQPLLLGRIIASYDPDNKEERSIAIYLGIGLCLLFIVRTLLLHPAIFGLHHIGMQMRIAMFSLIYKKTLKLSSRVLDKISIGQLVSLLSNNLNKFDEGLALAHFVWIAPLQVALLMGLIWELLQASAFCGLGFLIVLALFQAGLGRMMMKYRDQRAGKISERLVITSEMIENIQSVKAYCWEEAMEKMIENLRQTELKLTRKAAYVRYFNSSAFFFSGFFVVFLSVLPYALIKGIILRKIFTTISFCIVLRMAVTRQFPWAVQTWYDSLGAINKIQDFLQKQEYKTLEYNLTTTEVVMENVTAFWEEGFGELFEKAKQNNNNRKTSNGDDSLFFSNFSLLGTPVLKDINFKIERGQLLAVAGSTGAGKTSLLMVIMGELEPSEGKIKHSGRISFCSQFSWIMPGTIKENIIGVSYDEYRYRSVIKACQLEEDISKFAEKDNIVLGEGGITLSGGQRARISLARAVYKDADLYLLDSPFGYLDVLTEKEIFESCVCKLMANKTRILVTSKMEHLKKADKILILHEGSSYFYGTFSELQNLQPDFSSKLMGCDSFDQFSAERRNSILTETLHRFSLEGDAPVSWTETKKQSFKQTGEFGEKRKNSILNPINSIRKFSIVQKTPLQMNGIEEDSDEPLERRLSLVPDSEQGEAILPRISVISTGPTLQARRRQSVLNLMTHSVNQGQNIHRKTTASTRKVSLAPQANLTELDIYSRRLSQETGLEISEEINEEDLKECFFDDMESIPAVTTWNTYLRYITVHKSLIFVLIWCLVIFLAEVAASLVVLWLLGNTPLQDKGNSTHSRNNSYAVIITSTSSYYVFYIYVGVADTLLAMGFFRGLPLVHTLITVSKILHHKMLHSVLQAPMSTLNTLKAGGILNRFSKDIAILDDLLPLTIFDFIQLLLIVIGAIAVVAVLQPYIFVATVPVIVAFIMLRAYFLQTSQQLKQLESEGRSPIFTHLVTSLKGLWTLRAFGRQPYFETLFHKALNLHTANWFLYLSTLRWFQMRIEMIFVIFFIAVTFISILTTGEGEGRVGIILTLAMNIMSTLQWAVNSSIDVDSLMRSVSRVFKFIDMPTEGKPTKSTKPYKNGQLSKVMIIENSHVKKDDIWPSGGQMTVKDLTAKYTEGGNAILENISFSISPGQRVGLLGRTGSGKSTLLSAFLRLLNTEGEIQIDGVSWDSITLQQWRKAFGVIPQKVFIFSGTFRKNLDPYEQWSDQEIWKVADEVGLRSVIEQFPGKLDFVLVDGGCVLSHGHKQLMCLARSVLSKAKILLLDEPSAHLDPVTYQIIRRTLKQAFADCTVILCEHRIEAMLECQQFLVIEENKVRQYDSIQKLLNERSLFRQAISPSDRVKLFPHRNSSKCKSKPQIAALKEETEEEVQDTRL

- activation at 10 µM [1]: > 60%
- EC50 (HBE assay): < 1000 nM
- Emax [2]: > 60%
SMILES: CC[C@H](C)[C@@H]1COc2cc(-c3c(C)cccc3C)nc(n2)NS(=O)(=O)c2cccc(c2)C(=O)N1Cc1ncc(OC2CCC2)cn1 [Compound 1472]

- activation at 10 µM [1]: > 60%
- EC50 (HBE assay): < 1000 nM
- Emax [2]: > 60%
SMILES: Cc1cccc(C)c1-c1cc2nc(n1)NS(=O)(=O)c1cccc(c1)C(=O)N(Cc1ncc(N3CC(C)(C)C3)cn1)[C@H](CC1CC1)CO2 [Compound 1505]

- activation at 10 µM [3]: > 60%
- EC50 (Table 11): < 1000 nM
- Emax [4]: > 60%
SMILES: Cc1cccc(C)c1-c1cc2nc(n1)NS(=O)(=O)c1cccc(c1)C(=O)N(Cc1cccc(C3CCCC3)n1)[C@H](CC(C)(C)C)CO2 [Compound 598]

- activation at 10 µM [1]: > 60%
SMILES: Cc1cccc(C)c1-c1cc2nc(n1)NS(=O)(=O)c1cccc(c1)C(=O)N(Cc1cccc(N(C)C(C)C(C)(C)C)n1)[C@H](CC(C)(C)C)CO2 (some centres unmarked) [Compound 1427]

- EC50 (Table 10): < 1000 nM
- Emax [5]: > 60%
SMILES: COCCNc1cccnc1CN1C(=O)c2cccc(c2)S(=O)(=O)Nc2nc(cc(-c3c(C)cccc3C)n2)OC[C@H]1CC(C)(C)C [Compound 378]

- activation at 10 µM [3]: > 60%
- EC50 (Table 11): < 1000 nM
- Emax [4]: > 60%
SMILES: Cc1cccc(C)c1-c1cc2nc(n1)NS(=O)(=O)c1cccc(c1)C(=O)N(Cc1ccc(OCC(C)(C)O)cn1)[C@H](CC(C)(C)C)CO2 [Compound 51, (11R)-6-(2,6-Dimethylphenyl)-11-(2,2-dimethylpropyl)-12-[[5-(2-hydroxy-2-methyl-propoxy)-2-pyridyl]methyl]-2,2-dioxo-9-oxa-2λ^6-thia-3,5,12,19-tetrazatricyclo[12.3.1.14,8]nonadeca-1(18),4(19),5,7,14,16-hexaen-13-one]

- EC50 (Table 12): < 1000 nM
- Emax [6]: > 60%
SMILES: Cc1cccc(C)c1-c1cc2nc(n1)NS(=O)(=O)c1cccc(c1)C(=O)N(Cc1cccc(C3CCCCO3)n1)[C@H](CC(C)(C)C)CO2 (some centres unmarked) [Compound 604]

- EC50 (Table 11): 3000 to 30000 nM
- Emax [4]: > 60%
SMILES: Cc1cccc(C)c1-c1cc2nc(n1)NS(=O)(=O)c1cccc(c1)C(=O)N(Cc1ncc(C3CCC3)cn1)[C@H](CC(C)(C)C)CO2 [Compound 635]

- Emax [4]: < 30%
SMILES: Cc1ccc(C)c(-c2cc3nc(n2)NS(=O)(=O)c2cccc(c2)C(=O)N(Cc2ccc(N4CCCCC4)cn2)[C@H](CC(C)(C)C)CO3)c1C [Compound 902]

- EC50 (Table 13): < 1000 nM
- Emax [7]: > 60%
SMILES: Cc1cccc(C)c1-c1cc2nc(n1)NS(=O)(=O)c1cccc(c1)C(=O)N(Cc1ncc(N3CC4(CCOCC4)C3)cn1)[C@H](CC(C)(C)C)CO2 [Compound 866]

- EC50 (Table 12): < 1000 nM
SMILES: Cc1cccc(C)c1-c1cc2nc(n1)NS(=O)(=O)c1cccc(c1)C(=O)N(Cc1cccc(N3CCCC3C(C)C)n1)[C@H](CC(C)(C)C)CO2 (some centres unmarked) [Compound 548]

- activation at 10 µM (Table 10, at 10 μM, read-out: HBE activity at 10 (μM) (%)): > 60%
SMILES: Cc1cccc(C)c1-c1cc2nc(n1)NS(=O)(=O)c1cccc(c1)C(=O)N(Cc1ccn(C)n1)[C@H](CC(C)(C)C)CO2 [Compound 825]

- EC50 (Table 12): < 1000 nM
- Emax [6]: > 60%
SMILES: COC[C@H]1CCCN1c1cnc(CN2C(=O)c3cccc(c3)S(=O)(=O)Nc3nc(cc(-c4c(C)cccc4C)n3)OC[C@H]2CC(C)(C)C)nc1 [Compound 570]

- activation at 10 µM [8]: > 600%
SMILES: Cc1cccc(C)c1-c1cc2nc(n1)NS(=O)(=O)c1cccc(c1)C(=O)N(CC(=O)N1CCC[C@@H](C)C1)[C@H](CC(C)(C)C)CO2 [Compound 184]

- activation at 10 µM [9]: > 600%
SMILES: Cc1cccc(C)c1-c1cc2nc(n1)NS(=O)(=O)c1cccc(c1)C(=O)N(Cc1ncc(N(C)C)c(C)n1)[C@H](CC(C)(C)C)CO2 [Compound 1008]

- EC50 (Table 10): < 1000 nM
- Emax [5]: > 60%
SMILES: Cc1cccc(C)c1-c1cc2nc(n1)NS(=O)(=O)c1cccc(c1)C(=O)N(Cc1ccc(-c3cncnc3)cc1)[C@H](CC(C)(C)C)CO2 [Compound 144, (11R)-6-(2,6-dimethylphenyl)-11-(2,2-dimethylpropyl)-2,2-dioxo-12-[(4-pyrimidin-5-ylphenyl)methyl]-9-oxa-2λ^6-thia-3,5,12,19-tetrazatricyclo[12.3.1.14,8]nonadeca-1(18),4(19),5,7,14,16-hexaen-13-one]

- activation at 10 µM [9]: > 600%
SMILES: Cc1cccc(C)c1-c1cc2nc(n1)NS(=O)(=O)c1cccc(c1)C(=O)N(Cc1nc(N(C)C(C)C)ccc1C(F)(F)F)[C@H](CC(C)(C)C)CO2 [Compound 458]

- EC50 (Table 13): < 1000 nM
SMILES: Cc1cccc(C)c1-c1cc2nc(n1)NS(=O)(=O)c1cccc(c1)C(=O)N(Cc1ccc([C@@H](O)CO)cn1)[C@H](CC(C)(C)C)CO2 [Compound 1150]

- activation at 10 µM [8]: > 600%
SMILES: Cc1cccc(C)c1-c1cc2nc(n1)NS(=O)(=O)c1cccc(c1)C(=O)N(CC(=O)N1CCC(C)(C)CC1)[C@H](CC(C)(C)C)CO2 [Compound 208]

- activation at 10 µM [8]: > 600%
SMILES: Cc1cccc(C)c1-c1cc2nc(n1)NS(=O)(=O)c1cccc(c1)C(=O)N(Cc1nccc(C(C)C(C)C)n1)[C@H](CC(C)(C)C)CO2 (some centres unmarked) [Compound 538]

- EC50 (HBE assay): < 1000 nM
- Emax [2]: > 60%
SMILES: Cc1cccc(C)c1-c1cc2nc(n1)NS(=O)(=O)c1cccc(c1)C(=O)N(Cc1cccc(N(C)C3CCOC3)n1)[C@H](CC(C)(C)C)CO2 (some centres unmarked) [Compound 1347]

- EC50 (Table 10): < 1000 nM
- Emax [5]: > 60%
SMILES: Cc1cccc(C)c1-c1cc2nc(n1)NS(=O)(=O)c1cccc(c1)C(=O)N(Cc1cccc(N3CCOCC3)n1)[C@H](CC(C)(C)C)CO2 [Compound 384]

- EC50 (Table 10): 1000 to 3000 nM
- Emax [5]: > 60%
SMILES: Cc1cccc(C)c1-c1cc2nc(n1)NS(=O)(=O)c1cccc(c1)C(=O)N(Cc1ccc(-c3cnc(O)nc3)cc1)[C@H](CC(C)(C)C)CO2 [Compound 145, (11R)-6-(2,6-dimethylphenyl)-11-(2,2-dimethylpropyl)-12-[[4-(2-hydroxypyrimidin-5-yl)phenyl]methyl]-2,2-dioxo-9-oxa-2λ^6-thia-3,5,12,19-tetrazatricyclo[12.3.1.14,8]nonadeca-1(18),4(19),5,7,14,16-hexaen-13-one]

- EC50 (Table 10): < 1000 nM
- Emax [5]: > 60%
SMILES: Cc1cccc(C)c1-c1cc2nc(n1)NS(=O)(=O)c1cccc(c1)C(=O)N(Cc1ccc(C(C)(C)C)cn1)[C@H](CC(C)(C)C)CO2 [Compound 496]

- EC50 (HBE assay): < 1000 nM
- Emax [2]: > 60%
SMILES: Cc1cccc(C)c1-c1cc2nc(n1)NS(=O)(=O)c1cccc(c1)C(=O)N(Cc1cncc(N3CCC[C@H]3COC(C)C)n1)[C@H](CC(C)(C)C)CO2 [Compound 1494]

- EC50 (Table 12): < 1000 nM
- Emax [6]: > 60%
SMILES: Cc1cccc(C)c1-c1cc2nc(n1)NS(=O)(=O)c1cccc(c1)C(=O)N(Cc1ncc(C(C)C)s1)[C@H](CC(C)(C)C)CO2 [Compound 705]

- EC50 (Table 13): 1000 to 3000 nM
- Emax [7]: > 60%
SMILES: Cc1cccc(C)c1-c1cc2nc(n1)NS(=O)(=O)c1cccc(n1)C(=O)N(Cc1ccc(N(C)CC(C)(C)C)cn1)[C@H](CC(C)(C)C)CO2 [Compound 1125]

- EC50 (Table 11): < 1000 nM
- Emax [4]: > 60%
SMILES: CO[C@@H]1CCN(c2cnc(CN3C(=O)c4cccc(c4)S(=O)(=O)Nc4nc(cc(-c5c(C)cccc5C)n4)OC[C@H]3CC(C)(C)C)nc2)C1 [Compound 623]
